Key:
Parameters in all cases: scale not given: the % may be the effect or the level left
[1] = molecular target: Protein kinase C alpha type (Homo sapiens) (UniProt P17252); experiment: Percentage inhibition of Protein kinase C alpha at 50 uM
[2] = molecular target: Protein kinase C beta type (Homo sapiens) (UniProt P05771); experiment: Percentage inhibition of Protein kinase C beta 2 at 50 uM
[3] = molecular target: Protein kinase C gamma type (Homo sapiens) (UniProt P05129); experiment: Percentage inhibition of Protein kinase C gamma at 50 uM
[4] = molecular target: Protein kinase C beta type (Homo sapiens) (UniProt P05771); experiment: Percentage inhibition of Protein kinase C beta 1 at 50 uM
[5] = molecular target: T1, Serine/threonine-protein kinase D1 (Homo sapiens) (UniProt Q15139); experiment: Percentage inhibition of Protein kinase C mu at 50 uM
T1 sequence (whole entry): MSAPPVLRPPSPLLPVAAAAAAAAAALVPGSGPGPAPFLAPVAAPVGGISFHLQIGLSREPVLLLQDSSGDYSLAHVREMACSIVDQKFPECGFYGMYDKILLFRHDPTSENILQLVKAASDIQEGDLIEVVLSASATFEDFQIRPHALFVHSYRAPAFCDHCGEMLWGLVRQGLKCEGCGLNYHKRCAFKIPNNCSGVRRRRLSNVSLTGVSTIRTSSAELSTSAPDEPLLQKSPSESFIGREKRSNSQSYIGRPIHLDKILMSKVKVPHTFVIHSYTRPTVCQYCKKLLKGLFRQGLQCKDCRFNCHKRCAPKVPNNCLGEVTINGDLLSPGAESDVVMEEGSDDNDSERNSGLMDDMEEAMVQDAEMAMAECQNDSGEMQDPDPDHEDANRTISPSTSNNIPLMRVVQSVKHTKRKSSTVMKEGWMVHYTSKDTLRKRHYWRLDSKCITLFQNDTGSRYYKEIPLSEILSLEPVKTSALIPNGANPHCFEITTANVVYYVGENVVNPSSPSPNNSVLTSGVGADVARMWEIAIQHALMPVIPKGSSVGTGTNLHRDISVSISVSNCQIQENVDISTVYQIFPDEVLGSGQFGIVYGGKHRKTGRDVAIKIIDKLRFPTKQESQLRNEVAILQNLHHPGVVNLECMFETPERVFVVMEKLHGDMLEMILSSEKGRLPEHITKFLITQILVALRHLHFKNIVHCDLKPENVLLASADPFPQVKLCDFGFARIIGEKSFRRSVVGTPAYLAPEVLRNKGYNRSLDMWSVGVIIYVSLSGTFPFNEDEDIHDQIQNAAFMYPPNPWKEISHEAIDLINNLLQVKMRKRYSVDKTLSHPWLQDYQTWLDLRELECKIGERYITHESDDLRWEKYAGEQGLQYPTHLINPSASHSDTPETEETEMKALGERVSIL

[6] = molecular target: T2, Protein kinase C zeta type (Homo sapiens) (UniProt Q05513); experiment: Percentage inhibition against Protein kinase C zeta at 50 uM
T2 sequence (whole entry): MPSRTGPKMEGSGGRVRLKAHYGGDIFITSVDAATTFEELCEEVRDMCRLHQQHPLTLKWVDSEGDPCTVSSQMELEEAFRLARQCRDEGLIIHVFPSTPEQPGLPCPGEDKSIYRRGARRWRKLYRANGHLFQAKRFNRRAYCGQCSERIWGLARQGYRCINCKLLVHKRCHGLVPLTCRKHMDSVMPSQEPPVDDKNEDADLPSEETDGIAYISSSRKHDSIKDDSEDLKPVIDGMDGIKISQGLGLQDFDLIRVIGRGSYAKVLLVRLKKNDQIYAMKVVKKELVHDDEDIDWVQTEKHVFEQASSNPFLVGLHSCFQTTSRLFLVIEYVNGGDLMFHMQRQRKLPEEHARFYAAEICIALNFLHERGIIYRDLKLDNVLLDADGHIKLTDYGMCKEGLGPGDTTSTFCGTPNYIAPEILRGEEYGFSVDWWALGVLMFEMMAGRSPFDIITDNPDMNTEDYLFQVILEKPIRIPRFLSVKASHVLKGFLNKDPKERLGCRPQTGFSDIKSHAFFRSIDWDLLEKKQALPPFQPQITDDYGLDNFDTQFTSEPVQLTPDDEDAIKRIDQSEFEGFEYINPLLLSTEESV

[7] = molecular target: Protein kinase C theta type (Homo sapiens) (UniProt Q04759); experiment: Percentage inhibition of Protein kinase C theta at 50 uM
[8] = molecular target: Protein kinase C eta type (Homo sapiens) (UniProt P24723); experiment: Percentage inhibition of Protein kinase C eta at 50 uM
[9] = molecular target: T3, Protein kinase C epsilon type (Homo sapiens) (UniProt Q02156); experiment: Percentage inhibition of Protein kinase C epsilon at 50 uM
T3 sequence (whole entry): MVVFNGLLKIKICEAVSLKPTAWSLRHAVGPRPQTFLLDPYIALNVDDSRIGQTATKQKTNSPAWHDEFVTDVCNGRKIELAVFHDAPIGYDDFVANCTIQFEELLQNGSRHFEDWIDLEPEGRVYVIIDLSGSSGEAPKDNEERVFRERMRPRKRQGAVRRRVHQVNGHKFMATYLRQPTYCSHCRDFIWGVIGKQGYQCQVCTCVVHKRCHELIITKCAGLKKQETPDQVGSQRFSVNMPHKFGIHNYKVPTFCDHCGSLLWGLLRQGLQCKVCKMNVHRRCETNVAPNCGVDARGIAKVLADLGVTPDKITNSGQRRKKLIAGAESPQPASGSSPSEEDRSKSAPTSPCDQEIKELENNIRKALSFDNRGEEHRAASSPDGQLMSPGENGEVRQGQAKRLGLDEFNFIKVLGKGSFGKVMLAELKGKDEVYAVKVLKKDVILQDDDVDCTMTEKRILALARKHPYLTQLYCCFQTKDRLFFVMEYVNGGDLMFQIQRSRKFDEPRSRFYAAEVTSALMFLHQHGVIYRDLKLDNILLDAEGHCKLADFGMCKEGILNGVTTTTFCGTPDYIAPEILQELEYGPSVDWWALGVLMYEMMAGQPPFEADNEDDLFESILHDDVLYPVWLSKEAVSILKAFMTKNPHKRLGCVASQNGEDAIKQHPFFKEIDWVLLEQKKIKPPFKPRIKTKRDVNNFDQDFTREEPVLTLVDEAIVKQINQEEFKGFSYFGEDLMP

[10] = molecular target: T4, Protein kinase C iota type (Homo sapiens) (UniProt P41743); experiment: Percentage inhibition of Protein kinase C iota at 50 uM
T4 sequence (whole entry): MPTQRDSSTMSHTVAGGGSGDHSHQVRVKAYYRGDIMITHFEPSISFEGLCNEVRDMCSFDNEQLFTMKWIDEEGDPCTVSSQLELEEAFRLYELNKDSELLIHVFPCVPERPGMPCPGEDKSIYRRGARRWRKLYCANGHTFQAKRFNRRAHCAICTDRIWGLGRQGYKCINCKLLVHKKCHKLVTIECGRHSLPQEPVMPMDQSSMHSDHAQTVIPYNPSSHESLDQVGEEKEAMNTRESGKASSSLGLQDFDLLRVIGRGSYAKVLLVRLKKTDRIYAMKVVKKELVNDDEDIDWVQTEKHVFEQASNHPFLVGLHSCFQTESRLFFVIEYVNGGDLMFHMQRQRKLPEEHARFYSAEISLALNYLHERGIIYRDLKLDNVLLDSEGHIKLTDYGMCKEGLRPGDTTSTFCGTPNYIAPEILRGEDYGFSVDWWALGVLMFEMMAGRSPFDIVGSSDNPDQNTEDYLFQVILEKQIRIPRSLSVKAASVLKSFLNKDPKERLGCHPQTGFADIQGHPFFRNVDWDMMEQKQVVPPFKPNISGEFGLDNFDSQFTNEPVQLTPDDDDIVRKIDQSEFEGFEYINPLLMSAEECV

[11] = molecular target: Protein kinase C delta type (Homo sapiens) (UniProt Q05655); experiment: Percentage inhibition of Protein kinase C delta at 50 uM
[12] = molecular target: Ribosomal protein S6 kinase beta-1 (Homo sapiens) (UniProt P23443); experiment: Percentage inhibition of Ribosomal protein S6 kinase at 50 uM
Ribosomal protein S6 kinase beta-1 (Homo sapiens), sequence (P23443 whole entry, looked up): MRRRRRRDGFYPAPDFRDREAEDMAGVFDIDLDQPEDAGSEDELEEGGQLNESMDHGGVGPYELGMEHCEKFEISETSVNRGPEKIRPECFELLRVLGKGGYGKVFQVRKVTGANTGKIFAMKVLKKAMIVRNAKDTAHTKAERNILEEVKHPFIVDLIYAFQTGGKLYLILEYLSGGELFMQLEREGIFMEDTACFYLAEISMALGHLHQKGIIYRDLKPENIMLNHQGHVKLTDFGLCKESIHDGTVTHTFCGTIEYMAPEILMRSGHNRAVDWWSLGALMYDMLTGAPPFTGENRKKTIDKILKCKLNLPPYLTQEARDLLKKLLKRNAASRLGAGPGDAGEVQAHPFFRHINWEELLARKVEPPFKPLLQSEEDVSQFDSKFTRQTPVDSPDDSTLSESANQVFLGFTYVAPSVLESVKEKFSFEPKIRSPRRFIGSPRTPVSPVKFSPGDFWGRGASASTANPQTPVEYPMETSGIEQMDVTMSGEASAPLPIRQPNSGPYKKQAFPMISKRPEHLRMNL

Protein kinase C beta type (Homo sapiens), sequence (P05771 2-671 limits assumed): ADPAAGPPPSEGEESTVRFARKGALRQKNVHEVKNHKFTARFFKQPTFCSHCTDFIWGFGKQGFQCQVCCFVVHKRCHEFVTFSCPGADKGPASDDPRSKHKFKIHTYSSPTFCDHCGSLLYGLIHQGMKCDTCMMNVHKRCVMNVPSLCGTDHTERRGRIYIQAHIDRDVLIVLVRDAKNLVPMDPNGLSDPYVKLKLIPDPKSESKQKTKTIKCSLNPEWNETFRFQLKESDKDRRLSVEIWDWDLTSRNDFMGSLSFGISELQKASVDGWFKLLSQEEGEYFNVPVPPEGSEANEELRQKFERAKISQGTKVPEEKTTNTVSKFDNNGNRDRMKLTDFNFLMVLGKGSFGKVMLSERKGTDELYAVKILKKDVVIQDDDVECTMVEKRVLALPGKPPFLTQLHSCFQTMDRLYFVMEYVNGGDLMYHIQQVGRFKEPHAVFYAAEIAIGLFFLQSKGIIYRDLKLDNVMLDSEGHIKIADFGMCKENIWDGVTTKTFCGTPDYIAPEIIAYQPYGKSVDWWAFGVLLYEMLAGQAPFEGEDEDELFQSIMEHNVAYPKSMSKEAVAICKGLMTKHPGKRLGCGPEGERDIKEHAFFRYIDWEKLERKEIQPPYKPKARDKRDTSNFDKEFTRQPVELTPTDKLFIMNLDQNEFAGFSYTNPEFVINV
Protein kinase C eta type (Homo sapiens), sequence (P24723 whole entry): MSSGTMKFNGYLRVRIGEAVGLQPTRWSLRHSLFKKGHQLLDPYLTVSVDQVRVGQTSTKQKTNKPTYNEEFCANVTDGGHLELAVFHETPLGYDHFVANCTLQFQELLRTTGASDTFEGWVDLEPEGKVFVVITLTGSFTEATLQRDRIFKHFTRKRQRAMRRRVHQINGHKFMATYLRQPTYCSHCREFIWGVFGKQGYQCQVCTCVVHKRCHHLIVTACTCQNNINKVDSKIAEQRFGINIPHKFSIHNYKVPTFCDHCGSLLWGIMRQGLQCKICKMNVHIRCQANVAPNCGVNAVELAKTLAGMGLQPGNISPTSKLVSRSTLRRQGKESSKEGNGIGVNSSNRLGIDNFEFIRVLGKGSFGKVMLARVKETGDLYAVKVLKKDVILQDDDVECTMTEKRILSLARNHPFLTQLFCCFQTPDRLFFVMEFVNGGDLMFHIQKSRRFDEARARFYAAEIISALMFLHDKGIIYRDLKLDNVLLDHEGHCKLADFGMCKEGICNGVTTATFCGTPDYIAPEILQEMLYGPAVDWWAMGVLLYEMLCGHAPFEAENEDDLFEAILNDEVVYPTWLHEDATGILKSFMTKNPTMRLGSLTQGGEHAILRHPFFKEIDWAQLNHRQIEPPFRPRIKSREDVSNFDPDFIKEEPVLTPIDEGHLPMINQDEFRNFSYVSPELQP
Protein kinase C theta type (Homo sapiens), sequence (Q04759 whole entry, looked up): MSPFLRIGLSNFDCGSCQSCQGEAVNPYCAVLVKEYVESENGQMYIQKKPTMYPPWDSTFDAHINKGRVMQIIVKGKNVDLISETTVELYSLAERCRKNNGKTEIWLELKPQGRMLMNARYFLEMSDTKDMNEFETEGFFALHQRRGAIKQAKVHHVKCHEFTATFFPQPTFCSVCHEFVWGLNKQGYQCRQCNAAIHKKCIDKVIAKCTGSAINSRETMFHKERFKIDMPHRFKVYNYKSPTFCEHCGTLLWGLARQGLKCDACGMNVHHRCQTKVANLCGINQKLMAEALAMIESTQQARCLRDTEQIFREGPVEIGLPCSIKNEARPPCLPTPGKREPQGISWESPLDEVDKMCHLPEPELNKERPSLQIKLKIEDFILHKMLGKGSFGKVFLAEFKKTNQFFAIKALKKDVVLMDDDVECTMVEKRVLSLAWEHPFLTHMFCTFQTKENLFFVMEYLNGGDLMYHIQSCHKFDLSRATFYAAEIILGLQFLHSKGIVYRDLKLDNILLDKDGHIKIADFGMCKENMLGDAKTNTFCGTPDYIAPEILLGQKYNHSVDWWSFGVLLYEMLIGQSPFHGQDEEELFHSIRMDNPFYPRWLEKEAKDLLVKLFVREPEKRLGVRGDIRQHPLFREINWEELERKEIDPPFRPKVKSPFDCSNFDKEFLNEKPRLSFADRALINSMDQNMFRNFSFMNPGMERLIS
Protein kinase C delta type (Homo sapiens), sequence (Q05655 whole entry, looked up): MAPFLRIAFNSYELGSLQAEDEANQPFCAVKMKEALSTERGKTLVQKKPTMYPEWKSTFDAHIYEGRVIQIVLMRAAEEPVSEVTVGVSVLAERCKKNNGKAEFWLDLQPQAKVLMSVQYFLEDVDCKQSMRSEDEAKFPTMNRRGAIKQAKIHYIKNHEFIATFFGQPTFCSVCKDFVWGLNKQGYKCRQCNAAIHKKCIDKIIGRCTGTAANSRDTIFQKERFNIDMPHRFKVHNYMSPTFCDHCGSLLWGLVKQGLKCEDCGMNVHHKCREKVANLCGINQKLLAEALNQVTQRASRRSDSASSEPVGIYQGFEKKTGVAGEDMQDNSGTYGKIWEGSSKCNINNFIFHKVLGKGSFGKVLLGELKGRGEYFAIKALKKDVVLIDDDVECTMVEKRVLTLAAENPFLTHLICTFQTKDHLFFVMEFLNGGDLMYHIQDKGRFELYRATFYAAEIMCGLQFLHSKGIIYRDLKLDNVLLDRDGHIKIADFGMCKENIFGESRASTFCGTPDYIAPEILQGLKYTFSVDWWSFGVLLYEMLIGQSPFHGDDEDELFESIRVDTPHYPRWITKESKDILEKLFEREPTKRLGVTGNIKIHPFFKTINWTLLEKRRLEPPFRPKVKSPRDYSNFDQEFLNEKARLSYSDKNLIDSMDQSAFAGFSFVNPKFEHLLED

Activity [1] [%]	Activity [2] [%]	Activity [3] [%]	Activity [4] [%]	Activity [5] [%]	Activity [6] [%]	Activity [7] [%]	Activity [8] [%]	Activity [9] [%]	Activity [10] [%]	Activity [11] [%]	Activity [12] [%]	Compound
95	106	115	84	97	100	100	98	95	96	108	96	CCCCCNC1=C(c2cn(C)c3ccccc23)C(=O)N(C)C1=O
66	84	85	78	88	85	78	55	10	87	82	28	CN1C(=O)C(c2c[nH]c3ccccc23)=C(c2cn(CCCN)c3ccccc23)C1=O
